Assay results taken from US20200360391A1, “Medicinal Composition for Treating Intractable Heart Disease” (Osaka University, priority 2016, published 2020).
“Also recorded” adds a separate entry of the source. Where a name gives a salt, the structure may show the parent alone.

Columns and labels:
rats [1] = conditions: subcutaneous administration in rats; cited from earlier work
[2] = tested on: spontaneous dilated cardiomyopathy (J2N-k) hamster model; test: Spontaneous dilated cardiomyopathy (J2N-k) hamster model, 8-week administration from 20 weeks of age (Tests 1-3): echocardiography, body weight; conditions: for LVIDs 8 W: hydrochloride hydrate
Outline: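 Male J2N-k δ-glycan-deficient hamsters (delivered at 18 weeks; 2-week acclimation) were dosed by oral gavage twice daily for 8 weeks in 0.5% CMC-Na (G in distilled water; 5 mL/kg) at human-equivalent doses, e.g. cilostazol 1.7 mg/kg. Camostat PLGA preparation was given 10 mg/kg s.c. every 4 weeks. Echocardiographic EF/FS changes from baseline were assessed at 4 and 8 weeks versus vehicle.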

rats [3] = conditions: cited from earlier work
[4] = tested on: rat coronary artery complete ischemia model; test: Model of ischemia (MI) by rat coronary artery complete ligation (Tests 1 and 2): echocardiography, body weight; conditions: for value of change in E.F. compared with E.F. on Day 1 / value of change in F.S. compared with F.S. on Day 1: B-MS 100, C-MS 50, F-MS 30 mg/kg s.c. single injection
[5] = cited from earlier work
[6] = tested on: spontaneous dilated cardiomyopathy J2N-k baby hamsters; test: J2N-k baby hamsters (Test 4): administration alone or in combination, echocardiography, body weight; format: in vivo, hamster; conditions: for % FS / EF (%) / value of change in E.F. compared with E.F. at 0 W / value of change in F.S. compared with F.S. at 0 W: Test 4, dose O 0.17, C 3.3, E 15, orally twice daily, mean ± S.D.
Method: δ-Glycan-deficient spontaneous dilated cardiomyopathy (J2N-k) male hamsters (Japan SLC, Inc.) were delivered at 4 weeks of age. After a 1-week quarantine/acclimation, echocardiography was performed. The hamsters were grouped by stratified random assignment based on the EF values and the body weights so that each administration group was equalized.
Each test substance was individually administered twice daily (at an interval of 8 hours or more) by oral gavage, and echocardiography was performed 4 and 8 weeks after the start of administration (before dissection). Differences from the value before the start of administration (at the time of grouping) (amount of change: A) in each group were examined, and the cardiac function (EF value, FS %, etc.) was compared with that in the vehicle group (Group 1).
The doses were set according to the dose-setting basis in Test 3, and similarly orally administered twice daily. Effects of administration of combinations of two or three of carvedilol, which is a β-blocker widely used clinically, and ozagrel and/or pirfenidone were examined.

[7] = MI Test 1, NOAEL doses, 7 Day, mean ± S.D.
[8] = MI Test 1, NOAEL doses, 14 Day, mean ± S.D.
[9] = MI Test 1, NOAEL doses, 29 Day, mean ± S.D.
[10] = MI Test 2, 14 Day, B 150, G 5, I 30, C 10 mg/kg p.o. b.i.d., mean ± S.D.
[11] = MI Test 2, 29 Day, B 150, G 5, I 30, C 10 mg/kg p.o. b.i.d., mean ± S.D.

O=C(O)/C=C/c1ccc(Cn2ccnc2)cc1 [Compound C, Ozagrel hydrochloride hydrate]
LD50 (rats [1]): 2049 mg/kg
LVIDd 4 W ([2]; Test 1, p.o. b.i.d.): 7.1 mm
LVIDd 8 W ([2]; Test 1, p.o. b.i.d.): 7.4 mm
LVIDs 4 W ([2]; Test 1, p.o. b.i.d.): 5.9 mm
LVIDs 8 W ([2]; Test 1, p.o. b.i.d.): 6.1 mm
LVIDs 8 W ([2]; Test 1, p.o. b.i.d., listed as ozagrel): significantly lower
Cardiac function (EF, FS %) actual measured value or change rate compared with control, 4 W value ([2]; Test 3, clinical dose): significant cardiac function improvement effect
Cardiac function improvement effect ([2]; Test 3, clinical dose, summary): cardiac function improvement effect was observed
Minimal effective dose (screening 2) ([2]; mg/kg twice per day, oral preparation): 3.3 mg/kg
No-observed-effect level (rats [3]; rats, 3 months): 150 mg/kg
Dose at which toxic findings were observed (rats [3]; repeated oral administration in rats, duration per compound): ≥ 500 mg/kg
Action on left ventricular systolic function ([4]; MI Test 1, 28-day repeated oral administration b.i.d., NOAEL-based doses): suppression action on the deterioration of left ventricular systolic function
Body weight ([4]; MI Test 1, NOAEL doses, 1 Day (grouping), mean ± S.D.): 234.8 ± 8.3 g
% FS: value of change compared with the value on Day 1 [4, 7]: 0%
Body weight [4, 7]: 240.0 ± 9.3 g
EF: value of change compared with the value on Day 1 [4, 7]: -1%
% FS: value of change compared with the value on Day 1 [4, 8]: -1%
Body weight [4, 8]: 261.2 ± 10.8 g
EF: value of change compared with the value on Day 1 [4, 8]: -2%
Body weight ([4]; MI Test 1, NOAEL doses, 21 Day, mean ± S.D.): 278.9 ± 12.5 g
% FS: value of change compared with the value on Day 1 [4, 9]: -3%
Body weight [4, 9]: 299.8 ± 13.9 g
EF: value of change compared with the value on Day 1 [4, 9]: -5%
EF actual measured value and/or amount of change compared with control ([4]; MI Test 2, Day 14 and Day 29): significantly higher
Values of cardiac function (EF, FS %) compared with control ([4]; MI Test 2, oral b.i.d. 4 weeks or single subcutaneous administration): significantly higher
Body weight ([4]; MI Test 2, 1 Day, B 150, G 5, I 30, C 10 mg/kg p.o. b.i.d., B MS 100, C MS 50, I MS 30 mg/kg s.c. single injection, mean): 240.1 g
Body weight ([4]; MI Test 2, 7 Day, B 150, G 5, I 30, C 10 mg/kg p.o. b.i.d., B MS 100, C MS 50, I MS 30 mg/kg s.c. single injection, mean): 245.7 g
Body weight ([4]; MI Test 2, 14 Day, B 150, G 5, I 30, C 10 mg/kg p.o. b.i.d., B MS 100, C MS 50, I MS 30 mg/kg s.c. single injection, mean): 273.3 g
value of change in E.F. compared with E.F. on Day 1 [4, 10]: <−4.9 ± 2.3> %
value of change in F.S. compared with F.S. on Day 1 [4, 10]: <−2.7 ± 1.3> %
Body weight ([4]; MI Test 2, 21 Day, B 150, G 5, I 30, C 10 mg/kg p.o. b.i.d., B MS 100, C MS 50, I MS 30 mg/kg s.c. single injection, mean): 292.8 g
Body weight ([4]; MI Test 2, 29 Day, B 150, G 5, I 30, C 10 mg/kg p.o. b.i.d., B MS 100, C MS 50, I MS 30 mg/kg s.c. single injection, mean): 310.4 g
value of change in E.F. compared with E.F. on Day 1 [4, 11]: <−10.0 ± 3.9> %
value of change in F.S. compared with F.S. on Day 1 [4, 11]: <−5.3 ± 2.1> %
Safety at the daily amount ([5]; camostat 600 mg daily, ozagrel 400 mg daily): no safety problems except for slightly prolonged bleeding time
Abdominal / stomach / gastric discomfort cases ([5]; human, in vivo): 0.1%
Bleeding tendency cases ([5]; human, in vivo): 0.1%
Elevated AST (GOT) and/or ALT (GPT) / liver enzyme cases ([5]; human, in vivo): 0.3%
Itching / pruritus cases ([5]; human, in vivo): 0.2%
Nausea cases (cilostazol: nausea/vomiting) ([5]; human, in vivo): 0.3%
Rash cases ([5]; human, in vivo): 0.2%
Cases with side effects (including laboratory test value abnormality) ([5]; share of cases evaluated for safety): 2.0%
Action on decrease in left ventricular systolic function ([6]; Test 4, clinical doses p.o. b.i.d., 8 weeks, hydrochloride hydrate): significant suppression action on a decrease in left ventricular systolic function; also recorded: action of significantly suppressing a decrease in left ventricular systolic function
Body weight 3 W ([6]; Test 4, p.o. b.i.d., clinical dose): 85.4 g
% FS ([6]; 0 W (start of administration)): 39.1 ± 2.7%
EF (%) ([6]; 0 W (start of administration)): 77.3 ± 2.9%
% FS ([6]; 4 W): 34.9 ± 1.5%
EF (%) ([6]; 4 W): 72.3 ± 2.0%
value of change in E.F. compared with E.F. at 0 W ([6]; 4 W): <−5.0 ± 1.4> %
value of change in F.S. compared with F.S. at 0 W ([6]; 4 W): <−4.2 ± 1.4> %
% FS ([6]; 8 W): 30.7 ± 2.0%
EF (%) ([6]; 8 W): 66.6 ± 2.8%
value of change in E.F. compared with E.F. at 0 W ([6]; 8 W): <−10.7 ± 2.0> %
value of change in F.S. compared with F.S. at 0 W ([6]; 8 W): <−8.4 ± 1.6> %
